Experimental findings from patent US5532267A, “Amidinonaphthyl furancarboxylate derivatives and acid addition salts therof” (Torii & Co., Ltd., priority 1992, dated 1996) are described below.

Molecules are shown by their SMILES.

One data set deals with plasmin (Homo sapiens, UniProt P00747). Nature of the data set: anti-plasmin activity, hydrolysis of TAME (tosylarginine methyl ester). The format is biochemical. The conditions noted are these: hydrolysis of TAME; read-out: Pla: molar concentration inhibiting 50% of enzyme activity (IC50). The protocol: (§1) The values in Table 1 represent molar concentrations (IC50) of test compounds which inhibit 50% of the activity of each enzyme to hydrolyze TAME (tosylarginine methyl ester). The anti-trypsin, anti-plasmin, anti-kallikrein and anti-thrombin activities were determined according to the method of Muramatsu et al. (J. Biochem. (1965), volume 58, page 214).

The next data set relates to kallikrein. In words: anti-kallikrein activity, hydrolysis of TAME (tosylarginine methyl ester). The format is biochemical. The procedure: as §1
A further data set addresses thrombin (Homo sapiens, UniProt P00734). In words: anti-thrombin activity, hydrolysis of TAME (tosylarginine methyl ester). It is filed as biochemical. The protocol: as §1
Data set [1] deals with rabbit serum albumin (RSA) nephritis. In words: Effect of TO-195 on rabbit serum albumin (RSA) nephritis. It is filed as in vivo, rat (Sprague Dawley). The conditions noted are these: oral. The text has this: About 90% of human glomerular nephritis has been described as being immune complex nephritis which is caused by deposition in the glomeruli of immune complexes formed by the binding of antigens with antibodies in the blood. Effectiveness in treating rabbit serum albumin (RSA) nephritis in rats, which is known as an experimental model of nephritis caused by antigen-antibody reaction (Folia pharmacol. japon, 78: 491-499 (1981)), is shown below:
Sprague Dawley rats were immunized by subcutaneous injection in the back of 3 mg rabbit serum albumin in complete Freud's adjuvant (CFA). Two weeks after the subcutaneous injection, the rats were administered 1 mg of RSA (in saline) into the tail vein every other day for 10 weeks. Seven weeks after the first subcutaneous injection, the rats were also boosted with 3 mg RSA as in the first subcutaneous injection. The control group was injected with saline. Two weeks after the first IV injection, rats with more than 100 mg/day proteinurea after IV administration of RSA were divided into two groups each consisting of five rats. One group was orally given 30 mg/kg of TO-195 (in a suspension in water) twice a day for 20 days. The other group (untreated) and the control group were given distilled water p.o. (oral administration). The index of effectiveness of TO-195 was protein concentration in urine.

A short description of data set [2]: Toxicity in humans (Phase I study). The format is in vivo, human. The conditions noted are these: healthy male adult volunteers, capsules, 5 to 400 mg/man. The procedure:
Toxicity in humans (Phase I study): This test was for confirmation of the safety of the drug (which was administered to healthy male adult volunteers). Taking into consideration the above toxicity tests, the compound of Example 22 was prepared in the form of capsules containing the compound in an increasing amount (from 5 mg/man to 400 mg/man (body weight 50-60 kg)).

Sequence of plasmin (P00747 581-810 limits assumed, species assumed): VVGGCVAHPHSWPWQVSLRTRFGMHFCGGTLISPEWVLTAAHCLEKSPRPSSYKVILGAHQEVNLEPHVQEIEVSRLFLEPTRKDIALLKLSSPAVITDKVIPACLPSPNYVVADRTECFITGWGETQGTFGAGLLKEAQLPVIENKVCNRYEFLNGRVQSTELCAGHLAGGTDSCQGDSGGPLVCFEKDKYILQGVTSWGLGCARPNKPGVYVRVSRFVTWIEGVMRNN
Sequence of plasmin (P00747 97-580 partner limits assumed, species assumed): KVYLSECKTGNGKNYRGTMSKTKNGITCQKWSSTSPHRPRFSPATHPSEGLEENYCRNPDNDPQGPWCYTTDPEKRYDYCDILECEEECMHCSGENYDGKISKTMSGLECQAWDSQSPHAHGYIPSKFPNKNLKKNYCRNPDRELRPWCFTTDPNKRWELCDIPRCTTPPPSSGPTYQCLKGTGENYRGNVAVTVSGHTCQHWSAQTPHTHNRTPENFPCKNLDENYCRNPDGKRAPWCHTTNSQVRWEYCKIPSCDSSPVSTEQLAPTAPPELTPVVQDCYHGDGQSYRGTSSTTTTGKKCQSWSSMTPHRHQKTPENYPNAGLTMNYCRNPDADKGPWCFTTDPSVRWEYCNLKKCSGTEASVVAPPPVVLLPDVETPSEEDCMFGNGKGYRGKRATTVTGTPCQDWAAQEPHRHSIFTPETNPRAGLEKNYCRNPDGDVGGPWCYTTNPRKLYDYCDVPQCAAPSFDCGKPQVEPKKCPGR

As for `Cl.N=C(N)c1ccc2cc(OC(=O)c3ccc(CNC(=O)CCCC(=O)O)o3)ccc2c1` [Example 22, 6-Amidino-2-naphthyl 5-(4-carboxybutyrylaminomethyl)furan-2-carboxylate hydrochloride], the IC50 on plasmin was determined as 430 nM. In addition, the “kallikrein inhibition (in words)” value in the data set with kallikrein was “inhibitor”. Moreover, the IC50 with kallikrein (hydrolysis of TAME, read-out: Kal: molar concentration inhibiting 50% of enzyme activity (IC50)) was 470 nM. Also, the “thrombin inhibition (in words)” value at thrombin is on record as “inhibitor”. Besides, the IC50 at thrombin (hydrolysis of TAME, read-out: Thr: molar concentration inhibiting 50% of enzyme activity (IC50)) came to 3500 nM. Moreover, the “Protein concentration in urine” value in data set [1] (30 mg/kg twice a day, 20 days, mean ± standard deviation, five animals, untreated 385.9 ± 187.23, control 8.5 ± 2.62) was found to be 152.1 ± 49.11 mg/mL. Further, in data set [1] (30 mg/kg×2/day), the “N-acetyl-β-D-glucosamineidase excretion (in words)” value is recorded as “decreased”, the “alkaline phosphatase excretion (in words)” value is recorded as “decreased” and the “urinary protein excretion (in words)” value is “decreased urinary protein excretion”. Also, in data set [2], the “adverse side effects (in words)” value is listed as “No adverse side effects were found”.
